# System: HepG2
# Test: Cytotoxicity against Homo sapiens (human) HepG2 cells assessed as growth inhibition at 10 uM after 48 hr by SRB assay
# Assay type: functional
# Conditions: HepG2, 48 h, read-out: GI
row,SMILES,inhibition of growth at 10 µM [%]
1,O=C1CCCN1CCN1C(=O)C2C3c4ccccc4C(c4ccccc43)C2C1=O (stereo not given),41
2,O=C1C2C3c4ccccc4C(c4ccccc43)C2C(=O)N1Nc1ccccc1 (stereo not given),52
3,O=P1(N(CCCl)CCCl)NCCCO1 (stereo not given) [CYCLOPHOSPHAMIDE ANHYDROUS],14
4,CC1(C)CC(N2C(=O)C3C4c5ccccc5C(c5ccccc54)C3C2=O)CC(C)(C)N1 (stereo not given),40
5,O=C1C2C3c4ccccc4C(c4ccccc43)C2C(=O)N1CN1CCOCC1 (stereo not given),34
6,O=C1C2C3c4ccccc4C(c4ccccc43)C2C(=O)N1CCN1CCCCC1 (stereo not given),38
7,O=C1C2C3c4ccccc4C(c4ccccc43)C2C(=O)N1CC1CCCO1 (stereo not given),55
8,CC(CN1C(=O)C2C3c4ccccc4C(c4ccccc43)C2C1=O)N1C(=O)C2C3c4ccccc4C(c4ccccc43)C2C1=O (stereo not given),41
9,C[C@@H]1C[C@@H]([C@H](O)CC2CC(=O)NC(=O)C2)C(=O)[C@@H](C)C1 [CYCLOHEXIMIDE],15
10,O=C1C2C3c4ccccc4C(c4ccccc43)C2C(=O)N1Nc1ccccn1 (stereo not given),37
11,O=C1C2C3c4ccccc4C(c4ccccc43)C2C(=O)N1Cc1ccccn1 (stereo not given),35
12,O=C1C2C3c4ccccc4C(c4ccccc43)C2C(=O)N1CCCCN1C(=O)C2C3c4ccccc4C(c4ccccc43)C2C1=O (stereo not given),25

# System: NCI-H522
# Test: Cytotoxicity against Homo sapiens (human) NCI-H522 cells assessed as growth inhibition at 10 uM after 48 hr by SRB assay
# Assay type: functional
# Conditions: NCI-H522, 48 h, read-out: GI
row,SMILES,inhibition of growth at 10 µM [%]
1,O=C1CCCN1CCN1C(=O)C2C3c4ccccc4C(c4ccccc43)C2C1=O (stereo not given),15
2,O=C1C2C3c4ccccc4C(c4ccccc43)C2C(=O)N1Nc1ccccc1 (stereo not given),52
3,O=P1(N(CCCl)CCCl)NCCCO1 (stereo not given) [CYCLOPHOSPHAMIDE ANHYDROUS],9
4,CC1(C)CC(N2C(=O)C3C4c5ccccc5C(c5ccccc54)C3C2=O)CC(C)(C)N1 (stereo not given),15
5,O=C1C2C3c4ccccc4C(c4ccccc43)C2C(=O)N1CN1CCOCC1 (stereo not given),24
6,O=C1C2C3c4ccccc4C(c4ccccc43)C2C(=O)N1CCN1CCCCC1 (stereo not given),23
7,O=C1C2C3c4ccccc4C(c4ccccc43)C2C(=O)N1CC1CCCO1 (stereo not given),30
8,CC(CN1C(=O)C2C3c4ccccc4C(c4ccccc43)C2C1=O)N1C(=O)C2C3c4ccccc4C(c4ccccc43)C2C1=O (stereo not given),20
9,C[C@@H]1C[C@@H]([C@H](O)CC2CC(=O)NC(=O)C2)C(=O)[C@@H](C)C1 [CYCLOHEXIMIDE],13
10,O=C1C2C3c4ccccc4C(c4ccccc43)C2C(=O)N1Nc1ccccn1 (stereo not given),27
11,O=C1C2C3c4ccccc4C(c4ccccc43)C2C(=O)N1Cc1ccccn1 (stereo not given),20
12,O=C1C2C3c4ccccc4C(c4ccccc43)C2C(=O)N1CCCCN1C(=O)C2C3c4ccccc4C(c4ccccc43)C2C1=O (stereo not given),23

# System: HCT-15
# Test: Cytotoxicity against Homo sapiens (human) HCT15 cells assessed as growth inhibition at 10 uM after 48 hr by SRB assay
# Assay type: functional
# Conditions: HCT-15, 48 h, read-out: GI
row,SMILES,inhibition of growth at 10 µM [%]
1,O=C1CCCN1CCN1C(=O)C2C3c4ccccc4C(c4ccccc43)C2C1=O (stereo not given),16
2,O=C1C2C3c4ccccc4C(c4ccccc43)C2C(=O)N1Nc1ccccc1 (stereo not given),11
3,O=P1(N(CCCl)CCCl)NCCCO1 (stereo not given) [CYCLOPHOSPHAMIDE ANHYDROUS],5
4,CC1(C)CC(N2C(=O)C3C4c5ccccc5C(c5ccccc54)C3C2=O)CC(C)(C)N1 (stereo not given),20
5,O=C1C2C3c4ccccc4C(c4ccccc43)C2C(=O)N1CN1CCOCC1 (stereo not given),22
6,O=C1C2C3c4ccccc4C(c4ccccc43)C2C(=O)N1CCN1CCCCC1 (stereo not given),6
7,O=C1C2C3c4ccccc4C(c4ccccc43)C2C(=O)N1CC1CCCO1 (stereo not given),22
8,CC(CN1C(=O)C2C3c4ccccc4C(c4ccccc43)C2C1=O)N1C(=O)C2C3c4ccccc4C(c4ccccc43)C2C1=O (stereo not given),9
9,C[C@@H]1C[C@@H]([C@H](O)CC2CC(=O)NC(=O)C2)C(=O)[C@@H](C)C1 [CYCLOHEXIMIDE],12
10,O=C1C2C3c4ccccc4C(c4ccccc43)C2C(=O)N1Nc1ccccn1 (stereo not given),4
11,O=C1C2C3c4ccccc4C(c4ccccc43)C2C(=O)N1Cc1ccccn1 (stereo not given),7
12,O=C1C2C3c4ccccc4C(c4ccccc43)C2C(=O)N1CCCCN1C(=O)C2C3c4ccccc4C(c4ccccc43)C2C1=O (stereo not given),26

# System: Rattus norvegicus
# Test: Anti-inflammatory activity against albino Charles Foster Rattus norvegicus (rat) assessed as inhibition of carrageenan-induced paw edema at 50 mg/kg, po administered 30 min prior to carrageenan injection measured after 1-3 hr by plethysmometer
# Assay type: functional
# Design: scale not given: the % may be the effect or the level left
# Conditions: not given
row,SMILES,Activity [%]
1,O=C1CCCN1CCN1C(=O)C2C3c4ccccc4C(c4ccccc43)C2C1=O (stereo not given),17
2,O=C1C2C3c4ccccc4C(c4ccccc43)C2C(=O)N1Nc1ccccc1 (stereo not given),11
3,CC1(C)CC(N2C(=O)C3C4c5ccccc5C(c5ccccc54)C3C2=O)CC(C)(C)N1 (stereo not given),32
4,O=C1C2C3c4ccccc4C(c4ccccc43)C2C(=O)N1CN1CCOCC1 (stereo not given),39
5,O=C1C2C3c4ccccc4C(c4ccccc43)C2C(=O)N1CCN1CCCCC1 (stereo not given),27
6,O=C1C2C3c4ccccc4C(c4ccccc43)C2C(=O)N1CC1CCCO1 (stereo not given),34
7,CC(CN1C(=O)C2C3c4ccccc4C(c4ccccc43)C2C1=O)N1C(=O)C2C3c4ccccc4C(c4ccccc43)C2C1=O (stereo not given),22
8,O=C1C2C3c4ccccc4C(c4ccccc43)C2C(=O)N1Nc1ccccn1 (stereo not given),38
9,O=C1C2C3c4ccccc4C(c4ccccc43)C2C(=O)N1Cc1ccccn1 (stereo not given),14
10,O=C1C2C3c4ccccc4C(c4ccccc43)C2C(=O)N1CCCCN1C(=O)C2C3c4ccccc4C(c4ccccc43)C2C1=O (stereo not given),25

# System: PA-1
# Test: Cytotoxicity against Homo sapiens (human) PA1 cells assessed as growth inhibition at 10 uM after 48 hr by SRB assay
# Assay type: functional
# Conditions: PA-1, 48 h, read-out: GI
row,SMILES,inhibition of growth at 10 µM [%]
1,O=C1CCCN1CCN1C(=O)C2C3c4ccccc4C(c4ccccc43)C2C1=O (stereo not given),33
2,O=C1C2C3c4ccccc4C(c4ccccc43)C2C(=O)N1Nc1ccccc1 (stereo not given),46
3,O=P1(N(CCCl)CCCl)NCCCO1 (stereo not given) [CYCLOPHOSPHAMIDE ANHYDROUS],15
4,CC1(C)CC(N2C(=O)C3C4c5ccccc5C(c5ccccc54)C3C2=O)CC(C)(C)N1 (stereo not given),31
5,O=C1C2C3c4ccccc4C(c4ccccc43)C2C(=O)N1CN1CCOCC1 (stereo not given),24
6,O=C1C2C3c4ccccc4C(c4ccccc43)C2C(=O)N1CCN1CCCCC1 (stereo not given),25
7,O=C1C2C3c4ccccc4C(c4ccccc43)C2C(=O)N1CC1CCCO1 (stereo not given),31
8,CC(CN1C(=O)C2C3c4ccccc4C(c4ccccc43)C2C1=O)N1C(=O)C2C3c4ccccc4C(c4ccccc43)C2C1=O (stereo not given),14
9,C[C@@H]1C[C@@H]([C@H](O)CC2CC(=O)NC(=O)C2)C(=O)[C@@H](C)C1 [CYCLOHEXIMIDE],32
10,O=C1C2C3c4ccccc4C(c4ccccc43)C2C(=O)N1Nc1ccccn1 (stereo not given),13
11,O=C1C2C3c4ccccc4C(c4ccccc43)C2C(=O)N1Cc1ccccn1 (stereo not given),47
12,O=C1C2C3c4ccccc4C(c4ccccc43)C2C(=O)N1CCCCN1C(=O)C2C3c4ccccc4C(c4ccccc43)C2C1=O (stereo not given),37

# System: T47D
# Test: Cytotoxicity against Homo sapiens (human) T47D cells assessed as growth inhibition at 10 uM after 48 hr by SRB assay
# Assay type: functional
# Conditions: read-out: GI
row,SMILES,inhibition of growth at 10 µM [%]
1,O=C1CCCN1CCN1C(=O)C2C3c4ccccc4C(c4ccccc43)C2C1=O (stereo not given),26
2,O=C1C2C3c4ccccc4C(c4ccccc43)C2C(=O)N1Nc1ccccc1 (stereo not given),13
3,O=P1(N(CCCl)CCCl)NCCCO1 (stereo not given) [CYCLOPHOSPHAMIDE ANHYDROUS],12
4,CC1(C)CC(N2C(=O)C3C4c5ccccc5C(c5ccccc54)C3C2=O)CC(C)(C)N1 (stereo not given),10
5,O=C1C2C3c4ccccc4C(c4ccccc43)C2C(=O)N1CN1CCOCC1 (stereo not given),20
6,O=C1C2C3c4ccccc4C(c4ccccc43)C2C(=O)N1CCN1CCCCC1 (stereo not given),20
7,O=C1C2C3c4ccccc4C(c4ccccc43)C2C(=O)N1CC1CCCO1 (stereo not given),23
8,CC(CN1C(=O)C2C3c4ccccc4C(c4ccccc43)C2C1=O)N1C(=O)C2C3c4ccccc4C(c4ccccc43)C2C1=O (stereo not given),2
9,C[C@@H]1C[C@@H]([C@H](O)CC2CC(=O)NC(=O)C2)C(=O)[C@@H](C)C1 [CYCLOHEXIMIDE],9
10,O=C1C2C3c4ccccc4C(c4ccccc43)C2C(=O)N1Nc1ccccn1 (stereo not given),1
11,O=C1C2C3c4ccccc4C(c4ccccc43)C2C(=O)N1Cc1ccccn1 (stereo not given),26
12,O=C1C2C3c4ccccc4C(c4ccccc43)C2C(=O)N1CCCCN1C(=O)C2C3c4ccccc4C(c4ccccc43)C2C1=O (stereo not given),19
